Counter-ions that a name gives are not always drawn. Like-named read-outs stand apart in the source and are kept apart here.
Assays:
Assay in all cases: In vitro antibacterial activity (MIC)
Assay type in all cases: cell-based
K. pneumoniae 503-964 = conditions: Klebsiella pneumoniae, 503964; K. pneumoniae 503-964; read-out: MIC
Method: (§1) Drug dilutions are prepared in Mueller-Hinton broth ranging from 128 to 0.008 μg/ml. The diluted agents are dispensed in 100 μl amounts into the wells of a 96-well tray and used immediately or frozen at -10° to -70° C. until needed. Using an automated inoculator, 1.5 μl of a 10^-2 dilution of an overnight culture is added to each well of the tray. The tops of the trays are then sealed using transparent tape and incubated overnight at 37° C. The trays are examined with the aid of a viewer. The lowest concentration at which no growth is observed is considered to be the minimum inhibitory concentration (MIC).

E. coli 4 = tested on: E. coli 4
Method: as §1

E. coli 48 = tested on: E. coli 48
Method: as §1

P. aeruginosa 8710 = conditions: Pseudomonas aeruginosa; P. aeruginosa 8710; read-out: MIC
Method: as §1

K. pneumoniae HE7 = conditions: Klebsiella pneumoniae; K. pneumoniae HE7; read-out: MIC
Method: as §1

S. marcescens S714 = conditions: Serratia marcescens, S714, S. marcescens S714; read-out: MIC
Method: as §1

P. rettgeri ATCC 9250 = conditions: Providencia rettgeri, ATCC9250, P. rettgeri ATCC 9250; read-out: MIC
Method: as §1

P. vulgaris ATCC 6380 = conditions: Proteus vulgaris, ATCC6380, P. vulgaris ATCC 6380; read-out: MIC
Method: as §1

S. pneumoniae SC = conditions: Streptococcus pneumoniae, read-out: MIC
Method: as §1

K. pneumoniae A = conditions: Klebsiella pneumoniae, K. pneumoniae A; read-out: MIC
Method: as §1

S. schottmuelleri = conditions: read-out: MIC
Method: as §1

P. mirabilis 503-1136 = conditions: Proteus mirabilis, 5031136, P. mirabilis 503-1136; read-out: MIC
Method: as §1

S. marcescens SM = conditions: Serratia marcescens, read-out: MIC
Method: as §1

P. aeruginosa 503-56 = tested on: P. aeruginosa 503-56
Method: as §1

P. aeruginosa 6148B = conditions: Pseudomonas aeruginosa, read-out: MIC
Method: as §1

S. pneumoniae 6302 = conditions: Streptococcus pneumoniae, 6302, S. pneumoniae 6302; read-out: MIC
Method: as §1

S. marcescens S147 = conditions: Serratia marcescens; S. marcescens S147; read-out: MIC
Method: as §1

P. mirabilis 620A = conditions: Proteus mirabilis, 620A, P. mirabilis 620A; read-out: MIC
Method: as §1

S. marcescens 5805 = conditions: Serratia marcescens, 5805, S. marcescens 5805; read-out: MIC
Method: as §1

E. coli R-563 = conditions: Escherichia coli
Method: as §1

S. pyogenes 503-782 = conditions: Streptococcus pyogenes, 503782; S. pyogenes 503-782; read-out: MIC
Method: as §1

P. mirabilis 2 = conditions: Proteus mirabilis, 2, P. mirabilis 2; read-out: MIC
Method: as §1

C. freundii CDC6 = conditions: Citrobacter freundii
Method: as §1

S. aureus Smith = conditions: Staphylococcus aureus, S. aureus Smith; read-out: MIC
Method: as §1

E. coli 5152 = conditions: Escherichia coli, 5152, E. coli 5152; read-out: MIC
Method: as §1

P. aeruginosa Stone 130 = conditions: Pseudomonas aeruginosa, STONE130, read-out: MIC
Method: as §1

S. marcescens S1 = conditions: Serratia marcescens, S1, S. marcescens S1; read-out: MIC
Method: as §1

P. aeruginosa 503-820 = conditions: Pseudomonas aeruginosa, 503820; P. aeruginosa 503-820; read-out: MIC
Method: as §1

P. aeruginosa 8780 = conditions: Pseudomonas aeruginosa; P. aeruginosa 8780; read-out: MIC
Method: as §1

E. cloacae 9295 = conditions: Enterobacter cloacae, 9295, E. cloacae 9295; read-out: MIC
Method: as §1

S. marcescens S4 = conditions: Serratia marcescens, S4, S. marcescens S4; read-out: MIC
Method: as §1

S. typhi P58A = conditions: Salmonella enterica, TYPHI
Method: as §1

E. aerogenes 83 = conditions: Klebsiella aerogenes, 83, E. aerogenes 83; read-out: MIC
Method: as §1

K. pneumoniae 4964 = conditions: Klebsiella pneumoniae, 4964, K. pneumoniae 4964; read-out: MIC
Method: as §1

K. pneumoniae 35 = conditions: Klebsiella pneumoniae; K. pneumoniae 35; read-out: MIC
Method: as §1

P. vulgaris 100 = conditions: Proteus vulgaris; P. vulgaris 100; read-out: MIC
Method: as §1

P. vulgaris 101 = conditions: Proteus vulgaris, 101, P. vulgaris 101; read-out: MIC
Method: as §1

P. aeruginosa 5712 = conditions: Pseudomonas aeruginosa; P. aeruginosa 5712; read-out: MIC
Method: as §1

E. coli 387-1 = tested on: E. coli 387-1
Method: as §1

C. diversus CDC 1663-72 = conditions: Citrobacter koseri, CDC166372
Method: as §1

K. pneumoniae 503-994 = conditions: Klebsiella pneumoniae, 503994, K. pneumoniae 503-994; read-out: MIC
Method: as §1

K. pneumoniae 5096 = conditions: Klebsiella pneumoniae; K. pneumoniae 5096; read-out: MIC
Method: as §1

S. pyogenes 4 = conditions: Streptococcus pyogenes, 4, S. pyogenes 4; read-out: MIC
Method: as §1

E. cloacae P99 = conditions: Enterobacter cloacae, P99, E. cloacae P99
Method: as §1

[1] = Escherichia coli, 4, E. coli 4, read-out: MIC
[2] = Escherichia coli, 48, E. coli 48, read-out: MIC
[3] = Pseudomonas aeruginosa, 50356, P. aeruginosa 503-56, read-out: MIC
[4] = R563, E. coli R-563, read-out: MIC
[5] = CDC6, C. freundii CDC6, read-out: MIC
[6] = Escherichia coli, 3871, E. coli 387-1, read-out: MIC
[7] = C. diversus CDC 1663-72, read-out: MIC

## CC1(C)S[C@@H]2[C@H](N=CN3CCC(C4=NCCN4)CC3)C(=O)N2[C@H]1C(=O)O [L, [2S-(2alpha,5alpha,6beta)]-6-[[[4-(4,5-dihydro-1H-imidazol-2-yl)-1-piperidinyl]methylene]amino]-3,3-dimethyl-7-oxo-4-thia-1-azabicyclo[3.2.0]heptane-2-carboxylic acid hydrochloride]
K. pneumoniae 503-964
  MIC: 2 µg/mL
E. coli 4; [1]
  MIC: 0.125 µg/mL
E. coli 48; [2]
  MIC: 0.5 µg/mL
P. aeruginosa 8710
  MIC: 128 µg/mL
K. pneumoniae HE7
  MIC: > 128 µg/mL
S. marcescens S714
  MIC: 2 µg/mL
P. rettgeri ATCC 9250
  MIC: 1 µg/mL
P. vulgaris ATCC 6380
  MIC: 0.25 µg/mL
S. pneumoniae SC
  MIC: 1 µg/mL
K. pneumoniae A
  MIC: 0.25 µg/mL
S. schottmuelleri
  MIC: 0.25 µg/mL
P. mirabilis 503-1136
  MIC: 8 µg/mL
S. marcescens SM
  MIC: 1 µg/mL
P. aeruginosa 503-56; [3]
  MIC: 64 µg/mL
P. aeruginosa 6148B
  MIC: 128 µg/mL
S. pneumoniae 6302
  MIC: 1 µg/mL
S. marcescens S147
  MIC: 1 µg/mL
P. mirabilis 620A
  MIC: > 128 µg/mL
S. marcescens 5805
  MIC: 8 µg/mL
E. coli R-563; [4]
  MIC: 0.25 µg/mL
S. pyogenes 503-782
  MIC: 32 µg/mL
P. mirabilis 2
  MIC: 1 µg/mL
C. freundii CDC6; [5]
  MIC: 0.5 µg/mL
S. aureus Smith
  MIC: 4 µg/mL
E. coli 5152
  MIC: 32 µg/mL
P. aeruginosa Stone 130
  MIC: > 128 µg/mL
S. marcescens S1
  MIC: 0.5 µg/mL
P. aeruginosa 503-820
  MIC: 128 µg/mL
P. aeruginosa 8780
  MIC: > 128 µg/mL
E. cloacae 9295
  MIC: 2 µg/mL
S. marcescens S4
  MIC: 2 µg/mL
S. typhi P58A
  MIC: 0.5 µg/mL
E. aerogenes 83
  MIC: 2 µg/mL
K. pneumoniae 4964
  MIC: 64 µg/mL
K. pneumoniae 35
  MIC: 2 µg/mL
P. vulgaris 100
  MIC: 32 µg/mL
P. vulgaris 101
  MIC: 32 µg/mL
P. aeruginosa 5712
  MIC: > 128 µg/mL
E. coli 387-1; [6]
  MIC: 0.25 µg/mL
C. diversus CDC 1663-72; [7]
  MIC: 0.5 µg/mL
K. pneumoniae 503-994
  MIC: 1 µg/mL
K. pneumoniae 5096
  MIC: 64 µg/mL
S. pyogenes 4
  MIC: 0.5 µg/mL
E. cloacae P99
  MIC: 0.25 µg/mL

## CC1(C)S[C@@H]2[C@H](N=CN3CCC(CCCn4ccnc4)CC3)C(=O)N2[C@H]1C(=O)O [C, [2S-(2alpha,5alpha,6beta)]-6-[[4-[3-(1H-imidazol-1-yl)propyl]-1-piperidinyl]methylene]amino]-3,3-dimethyl-7-oxo-4-thia-1-azabicyclo[3.2.0]heptane-2-carboxylic acid 1.2 mole hydrochloride monohydrate]
K. pneumoniae 503-964
  MIC: 8 µg/mL
E. coli 4; [1]
  MIC: 8 µg/mL
E. coli 48; [2]
  MIC: 2 µg/mL
P. aeruginosa 8710
  MIC: > 128 µg/mL
K. pneumoniae HE7
  MIC: > 128 µg/mL
S. marcescens S714
  MIC: 32 µg/mL
P. rettgeri ATCC 9250
  MIC: 16 µg/mL
P. vulgaris ATCC 6380
  MIC: 4 µg/mL
S. pneumoniae SC
  MIC: 64 µg/mL
K. pneumoniae A
  MIC: 4 µg/mL
S. schottmuelleri
  MIC: 4 µg/mL
P. mirabilis 503-1136
  MIC: 128 µg/mL
S. marcescens SM
  MIC: 8 µg/mL
P. aeruginosa 503-56; [3]
  MIC: > 128 µg/mL
P. aeruginosa 6148B
  MIC: > 128 µg/mL
S. pneumoniae 6302
  MIC: 128 µg/mL
S. marcescens S147
  MIC: 16 µg/mL
P. mirabilis 620A
  MIC: > 128 µg/mL
S. marcescens 5805
  MIC: 32 µg/mL
E. coli R-563; [4]
  MIC: 4 µg/mL
S. pyogenes 503-782
  MIC: > 128 µg/mL
P. mirabilis 2
  MIC: 16 µg/mL
C. freundii CDC6; [5]
  MIC: 16 µg/mL
S. aureus Smith
  MIC: > 128 µg/mL
E. coli 5152
  MIC: > 128 µg/mL
P. aeruginosa Stone 130
  MIC: > 128 µg/mL
S. marcescens S1
  MIC: 128 µg/mL
P. aeruginosa 503-820
  MIC: > 128 µg/mL
P. aeruginosa 8780
  MIC: > 128 µg/mL
E. cloacae 9295
  MIC: 16 µg/mL
S. marcescens S4
  MIC: 32 µg/mL
S. typhi P58A
  MIC: 8 µg/mL
E. aerogenes 83
  MIC: > 128 µg/mL
K. pneumoniae 4964
  MIC: > 128 µg/mL
K. pneumoniae 35
  MIC: 8 µg/mL
P. vulgaris 100
  MIC: > 128 µg/mL
P. vulgaris 101
  MIC: 128 µg/mL
P. aeruginosa 5712
  MIC: > 128 µg/mL
E. coli 387-1; [6]
  MIC: 8 µg/mL
C. diversus CDC 1663-72; [7]
  MIC: 4 µg/mL
K. pneumoniae 503-994
  MIC: 32 µg/mL
K. pneumoniae 5096
  MIC: > 128 µg/mL
S. pyogenes 4
  MIC: 64 µg/mL
E. cloacae P99
  MIC: 8 µg/mL

## CC1(C)S[C@@H]2[C@H](N=CN3CCC(c4ncc[nH]4)CC3)C(=O)N2[C@H]1C(=O)O [O, [2S-(2alpha,5alpha,6beta)]-6-[[[4-(1H-imidazol-2-yl-1-piperidinyl]methylene]amino]-3,3-dimethyl-7-oxo-4-thia-1-azabicyclo[3.2.0]heptane-2-carboxylic acid hydrochloride trihydrate]
K. pneumoniae 503-964
  MIC: 0.5 µg/mL
E. coli 4; Escherichia coli, 4
  MIC: 0.125 µg/mL
E. coli 48; Escherichia coli, 48
  MIC: 0.125 µg/mL
P. aeruginosa 8710
  MIC: > 128 µg/mL
K. pneumoniae HE7
  MIC: > 128 µg/mL
S. marcescens S714
  MIC: 1 µg/mL
P. rettgeri ATCC 9250
  MIC: 0.5 µg/mL
P. vulgaris ATCC 6380
  MIC: 0.25 µg/mL
S. pneumoniae SC
  MIC: 1 µg/mL
K. pneumoniae A
  MIC: 0.062 µg/mL
S. schottmuelleri
  MIC: 0.125 µg/mL
S. marcescens SM
  MIC: 0.5 µg/mL
P. aeruginosa 503-56; P. aeruginosa 503-56, hydrochloride trihydrate
  MIC: > 128 µg/mL
P. aeruginosa 503-56; [3]
  MIC: 128 µg/mL
P. aeruginosa 6148B
  MIC: > 128 µg/mL
S. pneumoniae 6302
  MIC: 1 µg/mL
S. marcescens S147
  MIC: 0.25 µg/mL
S. marcescens 5805
  MIC: 8 µg/mL
E. coli R-563; R563
  MIC: 0.125 µg/mL
S. pyogenes 503-782
  MIC: 32 µg/mL
P. mirabilis 2
  MIC: 1 µg/mL
C. freundii CDC6; CDC6
  MIC: 0.125 µg/mL
E. coli 5152
  MIC: 16 µg/mL
P. aeruginosa Stone 130
  MIC: > 128 µg/mL
S. marcescens S1
  MIC: 0.5 µg/mL
P. aeruginosa 503-820
  MIC: > 128 µg/mL
P. aeruginosa 8780
  MIC: > 128 µg/mL
E. cloacae 9295
  MIC: 1 µg/mL
S. marcescens S4
  MIC: 2 µg/mL
S. typhi P58A
  MIC: 0.125 µg/mL
E. aerogenes 83
  MIC: 8 µg/mL
K. pneumoniae 4964
  MIC: 64 µg/mL
K. pneumoniae 35
  MIC: 1 µg/mL
P. vulgaris 100
  MIC: 8 µg/mL
P. vulgaris 101
  MIC: 32 µg/mL
P. aeruginosa 5712
  MIC: > 128 µg/mL
E. coli 387-1; Escherichia coli, 3871
  MIC: 0.125 µg/mL
C. diversus CDC 1663-72
  MIC: 0.125 µg/mL
K. pneumoniae 503-994
  MIC: 0.5 µg/mL
K. pneumoniae 5096
  MIC: 64 µg/mL
S. pyogenes 4
  MIC: 0.5 µg/mL
E. cloacae P99
  MIC: 0.062 µg/mL

Source: patent publication US4605744A, “Imidazole derivatives” (Hoffmann-La Roche Inc., priority 1985, dated 1986)
